From article PMC12516379, “Rotamer-Controlled Self-Immolative Linkers Enable Tunable Release of Neurosteroid Oxime Prodrugs” (ACS Medicinal Chemistry Letters, 2025)
Like-named read-outs stand apart in the source and are kept apart here.

Assay: Stability in acetate buffer pH 5.0 at room temperature via HPLC (UV)
Type: physicochemical
How it was run: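 Progesterone prodrugs dissolved at 1 mg/mL in PBS (pH 7.03) or 10 mM acetate buffer (pH 5.0), kept at RT and reinjected over time, HPLC-UV AUC at 254 nm. Percent parent remaining; k from ln(%remaining) vs time, pseudo-first-order t1/2 = 0.693/k; duplicates averaged.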

Measured: half-life at 1 mg/mL

CNCCN(C)C(=O)O/N=C(\C)[C@H]1CC[C@H]2[C@@H]3CCC4=CC(=O)CC[C@]4(C)[C@H]3CC[C@]12C [20a]
> 168 h: pH 5, acetate buffer pH 5.0, RT, 1 mg/mL, HPLC 254 nm, read-out: t1/2 in acetate buffer at RT (Tables S5-S8) (converted) | pH 5, acetate buffer pH 5.0, rt, HPLC (UV), read-out: Half-life (t½) pH 5.0 rt (converted) | pH 5, acetate buffer pH 5.0, rt, read-out: t½: pH 5.0, rt (Table S23) (converted)
